According to article PMC9592910, “Tissue distribution and integrated pharmacokinetic properties of major effective constituents of oral Gegen-Qinlian decoction in mice” (Frontiers in Pharmacology, 2022):
Marks after values point to notes of the source that are not given here.

Tests used:
Assay type in all cases: in vivo, Kunming mice
[1] = Pharmacokinetics/tissue distribution of GQD constituents in the colons of mice after oral GQD
Protocol: (§1) The liver and the colon homogenates were prepared with 10 times (V: W) the volume of ascorbic acid solution (200 μg/ml). Then the homogenates were pretreated as plasma to obtain the tissue samples for LC-MS/MS analysis. Fifty-four Kunming mice were randomly divided into nine groups according to body weight and gender (3 male and three female in each group). […] Then the C-T curves of the constituents in the plasma and the tissue homogenates were respectively drawn and their pharmacokinetic parameters were respectively calculated. […] It should be noted that the pharmacokinetic parameters of a GQD constituent was calculated based on its average concentration in six mice at each time point. The results were expressed as mean ± SD.

[2] = Pharmacokinetics/tissue distribution of GQD constituents in the livers of mice after oral GQD; details: for Kp: both sexes
Protocol: as §1

[3] = Pharmacokinetics of GQD constituents in the portal vein of mice after oral GQD; details: for AUC(0-t): read-out: AUC0–24 h
Protocol: (§2) Fifty-four Kunming mice were randomly divided into nine groups according to body weight and gender (3 male and three female in each group). Each group was orally administered with water solution (0.2 ml/10 g body weight) of the GQD extract powder at the dosage of 6.1 g/kg body weight. The dosage of GQD extract powder equals to 18 g/kg herbal pieces of GQD, which is equivalent to its clinical dosage. At each designed time point (0.08, 0.25, 0.5, 1, 2, 4, 8, 12, and 24 h) after oral administration, six mice were anesthetized with ether, and blood was collected from the portal vein (about 0.2 ml, aspirated in a 1 ml heparinized syringe) and then the systemic circulation (about 0.2 ml, collected in heparinized tubes after removal of the eyeball) of the mice to prepare plasma samples, and the livers and the colons were removed to prepare respective homogenate. After pretreatment, the concentrations of 19 major constituents of GQD in each sample were measured by the validated LC-MS/MS method (see “2.3”). Then the C-T curves of the constituents in the plasma and the tissue homogenates were respectively drawn and their pharmacokinetic parameters were respectively calculated.
(§3) It should be noted that the pharmacokinetic parameters of a GQD constituent was calculated based on its average concentration in six mice at each time point. The results were expressed as mean ± SD.

[4] = Pharmacokinetics of GQD constituents in the systemic circulation of mice after oral GQD; details: for half-life / Tmax / Cmax / MRT / AUC(0-t): both, Kunming; for Cmax / MRT / AUC(0-t): oral GQD 6.1 g/kg; for AUC(0-t): read-out: AUC0–24 h
Protocol: as §2, §3

[5] = both, Kunming, mouse, colon (homogenate), po, […], colon, mice, oral GQD extract […], read-out: T1/2 (converted)
[6] = both, Kunming, mouse, colon (homogenate), colon, mice, oral GQD extract 6.1 g/kg
[7] = both, Kunming, mouse, colon (homogenate), colon, mice, oral GQD extract 6.1 g/kg, read-out: Tmax
[8] = colon, mice, oral GQD extract […]
[9] = both, Kunming, mouse, liver (homogenate), po, […], liver, mice, oral GQD extract […], read-out: T1/2 (converted)
[10] = both, Kunming, mouse, liver (homogenate), liver, mice, oral GQD extract 6.1 g/kg
[11] = both, Kunming, mouse, liver (homogenate), liver, mice, oral GQD extract 6.1 g/kg, read-out: Tmax
[12] = liver, mice, oral GQD extract […]
[13] = both, Kunming, mouse, portal vein plasma, po, […], portal vein plasma, mice, oral GQD extract […], read-out: Tmax
[14] = both, Kunming, mouse, portal vein plasma, mice, oral GQD extract 6.1 g/kg
[15] = both, Kunming, mouse, portal vein plasma, mice, oral GQD extract 6.1 g/kg, read-out: T1/2 (converted)
[16] = mouse, systemic circulation plasma, po, […], systemic circulation plasma, mice, oral GQD […], read-out: T1/2 (converted)
[17] = mouse, systemic circulation plasma, po, […], systemic circulation plasma, mice, oral GQD […], read-out: Tmax
[18] = mouse, systemic circulation plasma, mice
[19] = portal vein plasma, mice, oral GQD extract […]
[20] = both, Kunming, mouse, in vivo, po, […]
[21] = both, Kunming, mouse, in vivo, po, […], T1/2

| half-life [1, 5] [h] | Cmax [1, 6] [ng/g] | MRT [1, 6] [h] | Tmax [1, 7] [h] | T1/2 [1, 8] [h] | half-life [2, 9] [h] | Cmax [2, 10] [ng/g] | MRT [2, 10] [h] | Tmax [2, 11] [h] | Tmax [3, 13] [h] | Cmax [3, 14] [ng/mL] | MRT [3, 14] [h] | AUC(0-t) [3, 14] [ng·h/mL] | half-life [3, 15] [h] | Structure (SMILES) | also measured |
| --- | --- | --- | --- | --- | --- | --- | --- | --- | --- | --- | --- | --- | --- | --- | --- |
| – | – | – | – | – | – | – | – | – | – | – | – | – | – | COc1cc2c(cc1OC)-c1cc3ccc4c(c3c[n+]1CC2)OCO4 [Epiberberine, epiberberine] | T1/2 ([1]; mouse, in vivo, po, […]): 3.3 h; AUC0–24 h liv/AUC0–24 h cir ([2]; mouse, in vivo, po): 9.9; AUC0–24 h liv/AUC0–24 h por ([2]; mouse, in vivo, po): 3.8; T1/2 ([3]; mouse, in vivo, po, […]): 5.6 h |
| 4 to 5 | 1830 | 7 | 4 | 4.4 | 6 to 7 | 910 | 8.6 | 4 | 4 | 643 | 7 | 5330 | 4.7 | CC1(C)[C@@H](O)CC[C@]2(C)[C@H]3C(=O)C=C4[C@@H]5C[C@@](C)(C(=O)O)CC[C@]5(C)CC[C@@]4(C)[C@]3(C)CC[C@@H]12 [Glycyrrhetinic acid, glycyrrhetinic acid] | T1/2 [2, 12]: 6.6# h; half-life [4, 16]: ~6 h; Tmax [4, 17]: 4 h; Cmax [4, 18]: 196 ng/mL; MRT [4, 18]: 8.4 h; AUC(0-t) [4, 18]: 2120 ng·h/mL; T1/2 ([4]; systemic circulation plasma, mice, oral GQD […]): 6.2# h |
| 3 to 4 | 2010 | 4.8 | 2 | 3.3 | 3.8 | 148 | 2.8 | 1 | 2 | 77.1 | 3.7 | 422 | 2.9 | CC1(C)[C@@H](O[C@H]2O[C@H](C(=O)O)[C@@H](O)[C@H](O)[C@H]2O[C@@H]2O[C@H](C(=O)O)[C@@H](O)[C@H](O)[C@H]2O)CC[C@]2(C)[C@H]3C(=O)C=C4[C@@H]5C[C@@](C)(C(=O)O)CC[C@]5(C)CC[C@@]4(C)[C@]3(C)CC[C@@H]12 [Glycyrrhizic acid, glycyrrhizic acid] | – |
| – | – | – | – | – | – | – | – | – | – | – | – | – | – | O=C1C[C@@H](c2ccc(O[C@@H]3O[C@H](CO)[C@@H](O)[C@H](O)[C@H]3O)cc2)Oc2cc(O)ccc21 [Liquiritin, liquiritin] | Tmax [1, 20]: 0.5 h; half-life [1, 21]: 19.5 h; Kp ([2]; Kunming, mouse, in vivo, po, AUC0–24 h liv/AUC0–24 h cir): ~5; Kp ([2]; Kunming, mouse, in vivo, po, AUC0–24 h liv/AUC0–24 h por): 2.4; AUC0–24 h liv/AUC0–24 h cir ([2]; both, Kunming, mouse, in vivo, po): 5.1; Tmax [2, 20]: 4 h; half-life [2, 21]: 19.7 h; half-life [3, 20]: 2.5 h; Tmax ([3]; both, Kunming, mouse, in vivo, po, […], Tmax): 0.25 h; half-life ([4]; mouse, in vivo, po, […], T1/2): 1.5 h; Tmax ([4]; mouse, in vivo, po, […], Tmax): 0.25 h |
| – | – | – | – | – | – | – | – | – | – | – | – | – | – | COc1c(O[C@@H]2O[C@H](C(=O)O)[C@@H](O)[C@H](O)[C@H]2O)cc(O)c2c(=O)cc(-c3ccccc3)oc12 [Wogonoside, wogonoside] | AUC0–24 h liv/AUC0–24 h cir ([2]; mouse, in vivo, po): 0.15; AUC0–24 h liv/AUC0–24 h por ([2]; mouse, in vivo, po): 0.03; T1/2 ([2]; mouse, in vivo, po, […]): 16.2 h; T1/2 ([3]; mouse, in vivo, po, […]): 2.6 h; T1/2 ([4]; mouse, in vivo, po, […]): 3.9 h |

| Structure (SMILES) | half-life [1, 5] [h] | Cmax [1, 6] [ng/g] | MRT [1, 6] [h] | Tmax [1, 7] [h] | T1/2 [1, 8] [h] | half-life [2, 9] [h] | Cmax [2, 10] [ng/g] | MRT [2, 10] [h] | Tmax [2, 11] [h] | Tmax [3, 13] [h] | Cmax [3, 14] [ng/mL] | MRT [3, 14] [h] | AUC(0-t) [3, 14] [ng·h/mL] | half-life [3, 15] [h] | also measured |
| --- | --- | --- | --- | --- | --- | --- | --- | --- | --- | --- | --- | --- | --- | --- | --- |
| COc1cc2c(cc1O)CC[n+]1cc3c(OC)c(OC)ccc3cc1-2 [Jatrorrhizine, jatrorrhizine] | 5 | 2100 | 6.2 | 4 | – | 2.4 | 136 | 6.6 | 4 | 4 | 16.6 | 4.8 | 116 | 6.3 | half-life [4, 16]: 4.3 h; Tmax [4, 17]: 0.08 h; Cmax [4, 18]: 10.1 ng/mL; MRT [4, 18]: 3.9 h; AUC(0-t) [4, 18]: 26.3 ng·h/mL |
| O=C1C[C@@H](c2ccc(O)cc2)Oc2cc(O)ccc21 [Liquiritigenin, liquiritigenin] | – | – | – | – | 3.4 | – | – | – | – | – | – | – | – | – | Tmax [1, 8]: 4.0 h; Tmax [2, 12]: 0.25 h; T1/2 [3, 19]: 5.9 h; Tmax [3, 19]: 2.0 h |
